Reference: PMC10574767, “Extractives from Artemisia afra with Anti-Bacterial and Anti-Fungal Properties” (Plants, 2023)
≈ marks a conversion by molar mass, not a printed value.

Assays:
[1] = test system: Escherichia coli; design: method as in ref 36 = [36]; 36. Koay Y.C. Wong K.C. Hasnah O. Ibrahim E.M.S. Mohammad Z.A. Chemical constituents and biological activities of Strobilanthes crispus L. Rec. Nat. Prod. 2013 7 59 64; details: cited from earlier work
[2] = test system: Klebsiella pneumoniae; design: method as in ref 36 = [36]; 36. Koay Y.C. Wong K.C. Hasnah O. Ibrahim E.M.S. Mohammad Z.A. Chemical constituents and biological activities of Strobilanthes crispus L. Rec. Nat. Prod. 2013 7 59 64; details: cited from earlier work
[3] = test system: Aspergillus niger; design: method as in PMID 19844829, PMID 35453556; details: cited from earlier work
[4] = test system: Enterococcus faecalis ATCC 29212; experiment: Serial dilution microplate MIC; assay type: cell-based; details: Table 2
Description: (§1) The MIC value of the plant extracts and isolated compounds against one fungal and five bacterial strains (Salmonella Typhimurium ATCC 39183, Escherichia coli ATCC 25922, Pseudomonas aeruginosa ATCC 27853, Staphylococcus aureus ATCC 29213, Enterococcus faecalis ATCC 29212, and fungi culture, Candida albicans ATCC 10231) was assessed in triplicate using the serial dilution microplate method; acetone and DMSO were used as solvents. Bacterial cultures were grown in Mueller Hinton broth (Sigma Aldrich, St. Louis, MO, USA) overnight and adjusted to McFarland standard 1 (1 × 10^8 CFU/mL). Then, 100 µL of samples were transferred into the first well of a sterile 96-well microtiter plate, which contained 100 µL of water and a 1:1 serial dilution with sterilized distilled water was carried out. In each well, 100 µL of appropriately adjusted fungal or bacterial cultures were added, and the bacteria were subjected to final concentrations of 250–3.9 μg/mL for pure compounds and 2.5–0.02 mg/mL for crude extracts. Amphotericin-B and Gentamicin (Virbac, Carros, France) served as positive controls for fungi and bacteria, respectively. For sterility, water served as control, while acetone served as a negative control. The microplates were then incubated for 24 h at 37 °C. Following incubation, 40 µL of 0.2 mg/mL p-iodonitrotetrazolium violet (INT, Sigma Aldrich) dissolved in water (hot) was added to the wells before being incubated at 37 °C for another 2 h. In the case of fungi, the INT was added before incubation. The MIC was measured visually as the lowest concentration of the compounds/extracts that inhibited proliferation.

[5] = test system: Pseudomonas aeruginosa ATCC 27853; experiment: Serial dilution microplate MIC; assay type: cell-based; details: Table 2
Description: as §1

[6] = test system: Staphylococcus aureus ATCC 29213; experiment: Serial dilution microplate MIC; assay type: cell-based; details: Table 2
Description: as §1

[7] = test system: Salmonella Typhimurium ATCC 39183; experiment: Serial dilution microplate MIC; assay type: cell-based; details: Table 2
Description: as §1

[8] = test system: Escherichia coli ATCC 25922; experiment: Serial dilution microplate MIC; assay type: cell-based; details: Table 2
Description: as §1

[9] = test system: HeLa; design: method as in PMID 35453556, PMID 21294076; details: cited from earlier work

In the case of `CC1(C)CC[C@]2(C)CC=C3[C@]4(C)CC[C@H]5C(C)(C)[C@@H](O)CC[C@]5(C)[C@H]4CC[C@@]3(C)[C@@H]2C1` [Compound 3β-Taraxerol, 3β-taraxerol], the “MIC Escherichia coli” value [1] is given as 62.5 mg/L (≈ 146 µM), the “MIC Klebsiella pneumoniae” value [2] is given as 62.5 mg/L (≈ 146 µM) and the “MIC Aspergillus niger” value [3] is given as 100 mg/L (≈ 234 µM). The MIC ([4]; Enterococcus faecalis, ATCC29212, isolated compounds, read-out: Minimum inhibitory concentration (MIC) E. faecalis) was over 250 mg/L, the “Selectivity index E. faecalis” value ([4]; in brackets, Vero LC50 vs MIC) was under 0.8 and the MIC ([5]; Pseudomonas aeruginosa, ATCC27853, isolated compounds, read-out: Minimum inhibitory concentration (MIC) P. aeruginosa) was over 250 mg/L. The “Selectivity index P. aeruginosa” value ([5]; in brackets, Vero LC50 vs MIC) was under 0.8, the MIC ([6]; Staphylococcus aureus, ATCC29213, isolated compounds, read-out: Minimum inhibitory concentration (MIC) S. aureus) was 250 mg/L (≈ 586 µM) and the “Selectivity index S. aureus” value ([6]; in brackets, Vero LC50 vs MIC) was over 0.8. The MIC ([7]; Salmonella enterica, isolated compounds, read-out: Minimum inhibitory concentration (MIC) S. Typhimurium) was 250 mg/L (≈ 586 µM), the “Selectivity index S. Typhimurium” value ([7]; in brackets, Vero LC50 vs MIC) was over 0.8 and the MIC ([8]; Escherichia coli, ATCC25922, isolated compounds, read-out: Minimum inhibitory concentration (MIC) E. coli) was 250 mg/L (≈ 586 µM). For the same compound, the “Selectivity index E. coli” value ([8]; in brackets, Vero LC50 vs MIC) was over 0.8 and the “Cytotoxicity HeLa” value [9] was “inactive”.
